Data as given in patent US11497761B2, “Compositions for the treatment of metastatic cancer” (priority 2019, dated 2022).

Tests used:
[1] = system: iCTCs from pancreatic cancer patients; assay: iCTC drug response (CDR) testing ex vivo, Project 1 Study-Pancreatic Cancer; format: cell-based, human; details: for number of live iCTCs remaining after treatment: 72 hours
Procedure: (§1) Materials for Project 1 Study-Pancreatic Cancer • Blood collection tubes: BD Vacutainer® 10 mL sodium heparin tube (BD catalog #367874)). • Vita-Assay™ AN6W plate. • Blood: pancreatic cancer, up to 40-mL blood collected from patients and provided by Conversant Bio. • Stock solution and dilutions • Monolaurin 4.78 mM with 0.75% PS-80 (Stock Solution C), 13.1 mg monolaurin in 0.25 mL PS-80 and 0.75 mL water and 0.1 mL of this solution was diluted with 0.9 mL of RPMI. Stocks are stable for 2 weeks at 4 degrees C. Monolaurin used is an equal mixture of 1-, 2-, and 3-isomers of monolaurin. • Monolaurin dilution: add 209.2 uL, 627.6 uL, and 1.2552 mL of monolaurin in 0.75% PS-80 (Stock solution C), and dilute to 10 mL of media to achieve final concentrations of 100 uM, 200 uM, 300 uM as indicated.
With respect to FIG. 1, a depiction of a generalized experimental scheme for testing efficacy of a composition in accordance with an exemplary embodiment of the present invention against iCTC from the blood of pancreatic cancer patients is shown. Invasive circulating tumor cells (iCTCs) were obtained from venous blood of the individual with advanced pancreatic cancer, cultured and exposed to a specific drug or battery of drugs at 1×, 2×, and 3× concentrations in vitro for 3 days. Drug responsiveness was measured by automatic flow cytometry using the reduction of live iCTCs in the treated samples from the number of live iCTCs in the untreated controls. The greater the reduction of iCTCs of a given drug at a given dose indicates greater responsiveness to that dose of the drug. Four AN6W plates were used for each sample. Control and drug at each dose in triplicate were incubated for 72 hours. The iCTCs were measured by flow cytometry and viewed by microscopy as described. The complete culture medium contains 10% fetal bovine serum.
The complete experimental procedure for Project 1 Study-Pancreatic Cancer, with reference to FIG. 1, is as follows:
1. Blood collection: up to 40-mL of blood was collected in several sodium heparin tubes from each patient.
2. Plasma collection: The patient sample tubes were pooled into a clean 50-mL conical tube and spun at 1,500 rpm for 8 mins at room temperature to separate plasma from blood cells. 3-4 mL of plasma were then collected into a clean 4.5-mL cell-frozen vial (up to 4 vials per patient), a labeled attached and the plasma stored at −80° C. freezer for use. 3. Calculated 50-mL tubes required for lysis of red blood cells: original blood volume. i.e., 36-mL,/2-mL=18. 4. Aliquotted 1/18 the remaining cell fraction into 18 new 50-mL tubes. 5. Red cell lysis: Added 48-mL of 1× red cell lysis buffer into each 50-mL tube to lyse red cells. Tubes placed on a roller mixer at 20-25° C. for 5 min. Cells spun down using low speed centrifugation (1,000 rpm). 6. iCTCs were captured using AN6W plate with or without drug treatment. 7. Drug treatment: Add 1-mL of CTC Capture Medium (standard culture medium containing 10% serum) with or without drugs (3× strength) to each 2-mL of the cell suspension in one well of the AN6W plate. 8. Cell culture: Culture cells in a 5% CO2 incubator at 37° C. for overnight, 72 hours, and 7 days. 9. CAM-enzyme elution of CAM-captured cells: Wells will be washed twice using 2-mL of 1×PBS. Add 0.8-mL of the activated CAM enzyme working solution into the well, and place at 37° C. for 15 min. Transfer cell suspension into a 15-mL conical centrifuge tube. Wash well by pipetting 2-mL of 1×PBS into the well and collect/transfer wash solution into the pool cell suspension. CAM-captured tumor cells will be collected using low speed centrifugation (1,000 rpm) of the conical tube. 10. Preparation of the cells for flow cytometry: Fix the cells by using 1×BD cell fixing buffer and keep at room temperature for 5 min. Add 3-mL of 1×PBS (containing 0.2% BSA buffer), spin down cells and remove the supernatant. 11. […]

[2] = Stability of monolaurin stock solution; format: physicochemical; details: 4.78 mM with 0.75% PS-80 (Stock Solution C), 4 degrees C
Procedure: as §1
Materials for Project 1 Study-Prostate Cancer • Blood collection tubes: BD Vacutainer® 10 mL sodium heparin tube (BD catalog #367874)). • Vita-Assay™ AN6W plate. • Blood: prostate cancer, up to 40-mL blood was collected from patients and provided by Conversant bio. • Stock Solution and Dilutions • Monolaurin, 4.78 mM with 0.75% PS-80 (Stock Solution C), 13.1 mg monolaurin in 0.25 mL PS-80 and 0.75 mL water and 0.1 mL of this solution was diluted with 0.9 mL of RPMI. Stock solutions were stable for 2 weeks at 4 degrees C. […]

CCCCCCCCCCCC(=O)OCC(O)CO (centres unmarked) [Monolaurin, glycerol monolaurate]
kill rates of iCTCs (summary) ([1]; iCTCs from pancreatic cancer patients): high kill rates | number of live iCTCs remaining after treatment ([1]; patient RP01 (Folfirinox), iCTC control 550, 100 uM monolaurin): 50 | number of live iCTCs remaining after treatment ([1]; patient RP01 (Folfirinox), iCTC control 550, 200 uM monolaurin): 0 | number of live iCTCs remaining after treatment ([1]; patient RP01 (Folfirinox), iCTC control 550, 300 uM monolaurin): 0 | number of live iCTCs remaining after treatment ([1]; patient RP03 (Folfirinox), iCTC control 23, 100 uM monolaurin): 10 | number of live iCTCs remaining after treatment ([1]; patient RP03 (Folfirinox), iCTC control 23, 200 uM monolaurin): 0 | number of live iCTCs remaining after treatment ([1]; patient RP03 (Folfirinox), iCTC control 23, 300 uM monolaurin): 0 | number of live iCTCs remaining after treatment ([1]; patient RP04 (Folfirinox), iCTC control 30, 100 uM monolaurin): 0 | number of live iCTCs remaining after treatment ([1]; patient RP04 (Folfirinox), iCTC control 30, 200 uM monolaurin): 0 | number of live iCTCs remaining after treatment ([1]; patient RP04 (Folfirinox), iCTC control 30, 300 uM monolaurin): 0 | number of live iCTCs remaining after treatment ([1]; patient RP10 (Folfirinox), iCTC control 100, 100 uM monolaurin): 10 | number of live iCTCs remaining after treatment ([1]; patient RP10 (Folfirinox), iCTC control 100, 200 uM monolaurin): 0 | number of live iCTCs remaining after treatment ([1]; patient RP10 (Folfirinox), iCTC control 100, 300 uM monolaurin): 0 | number of live iCTCs remaining after treatment ([1]; patient RP11 (Folfirinox), iCTC control 40, 100 uM monolaurin): 10 | number of live iCTCs remaining after treatment ([1]; patient RP11 (Folfirinox), iCTC control 40, 200 uM monolaurin): 10 | number of live iCTCs remaining after treatment ([1]; patient RP11 (Folfirinox), iCTC control 40, 300 uM monolaurin): 10 | number of live iCTCs remaining after treatment ([1]; patient RP12 (Folfirinox), iCTC control 30, 100 uM monolaurin): 20 | number of live iCTCs remaining after treatment ([1]; patient RP12 (Folfirinox), iCTC control 30, 200 uM monolaurin): 0 | number of live iCTCs remaining after treatment ([1]; patient RP12 (Folfirinox), iCTC control 30, 300 uM monolaurin): 0 | number of live iCTCs remaining after treatment ([1]; patient RP16 (Folfirinox), iCTC control 30, 100 uM monolaurin): 0 | number of live iCTCs remaining after treatment ([1]; patient RP16 (Folfirinox), iCTC control 30, 200 uM monolaurin): 0 | number of live iCTCs remaining after treatment ([1]; patient RP16 (Folfirinox), iCTC control 30, 300 uM monolaurin): 0 | number of live iCTCs remaining after treatment ([1]; patient RP17 (Gemzar), iCTC control 50, 100 uM monolaurin): 0 | number of live iCTCs remaining after treatment ([1]; patient RP17 (Gemzar), iCTC control 50, 200 uM monolaurin): 0 | number of live iCTCs remaining after treatment ([1]; patient RP17 (Gemzar), iCTC control 50, 300 uM monolaurin): 0 | number of live iCTCs remaining after treatment ([1]; patient RP18 (Gemzar/Abraxane), iCTC control 175, 100 uM monolaurin): 0 | number of live iCTCs remaining after treatment ([1]; patient RP18 (Gemzar/Abraxane), iCTC control 175, 200 uM monolaurin): 0 | number of live iCTCs remaining after treatment ([1]; patient RP18 (Gemzar/Abraxane), iCTC control 175, 300 uM monolaurin): 0 | number of live iCTCs remaining after treatment ([1]; patient RP22 (Keytruda), iCTC control 45, 100 uM monolaurin): 0 | number of live iCTCs remaining after treatment ([1]; patient RP22 (Keytruda), iCTC control 45, 200 uM monolaurin): 0 | number of live iCTCs remaining after treatment ([1]; patient RP22 (Keytruda), iCTC control 45, 300 uM monolaurin): 0 | number of live iCTCs remaining after treatment ([1]; patient RP′14 (Folfirinox), iCTC control 40, 100 uM monolaurin): 20 | number of live iCTCs remaining after treatment ([1]; patient RP′14 (Folfirinox), iCTC control 40, 200 uM monolaurin): 15 | number of live iCTCs remaining after treatment ([1]; patient RP′14 (Folfirinox), iCTC control 40, 300 uM monolaurin): 10 | stock solution stable for [2]: 2 weeks
